# Literature values, collected in patent publication US20170095484A1, “METHOD OF TREATING RESISTANT NON-HODGKIN LYMPHOMA, MEDULLOBLASTOMA, AND/OR ALK+NON-SMALL CELL LUNG CANCER USING THIENOTRIAZOLODIAZEPINE COMPOUNDS” (ONCOETHIX GMBH, priority 2014, published 2017).
# What was measured:
# mTOR = mTOR (Homo sapiens, UniProt P42345)
# [1] = biological target: Bruton's tyrosine kinase (BTK) (Homo sapiens, UniProt Q06187); settings: in intact cells and in cell-free systems
# [2] = system: Lyn, Syk, PKA, casein kinase I, ERK1, ERK2 and p38 kinase
# HDAC = settings: isoform not stated
# Chain of Bruton's tyrosine kinase (BTK) (Q06187 whole entry): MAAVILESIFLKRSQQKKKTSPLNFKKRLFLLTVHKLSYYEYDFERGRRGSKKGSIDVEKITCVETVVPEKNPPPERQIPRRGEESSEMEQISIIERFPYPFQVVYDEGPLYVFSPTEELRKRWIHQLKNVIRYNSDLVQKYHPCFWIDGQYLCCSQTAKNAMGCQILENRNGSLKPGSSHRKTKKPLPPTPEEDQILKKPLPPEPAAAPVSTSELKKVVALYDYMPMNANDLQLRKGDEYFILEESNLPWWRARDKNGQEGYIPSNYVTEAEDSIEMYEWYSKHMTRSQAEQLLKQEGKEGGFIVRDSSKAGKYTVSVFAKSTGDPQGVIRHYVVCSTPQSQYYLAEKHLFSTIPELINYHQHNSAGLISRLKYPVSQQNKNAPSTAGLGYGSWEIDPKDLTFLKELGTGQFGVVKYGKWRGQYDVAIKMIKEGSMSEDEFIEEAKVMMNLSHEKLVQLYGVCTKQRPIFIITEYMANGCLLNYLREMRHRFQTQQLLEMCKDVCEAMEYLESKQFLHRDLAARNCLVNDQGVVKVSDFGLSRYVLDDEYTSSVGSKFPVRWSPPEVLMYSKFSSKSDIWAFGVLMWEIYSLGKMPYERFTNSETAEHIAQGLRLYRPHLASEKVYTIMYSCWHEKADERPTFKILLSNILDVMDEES
molecule,measurement,setting,value
CO[C@H]1C[C@@H]2CC[C@@H](C)[C@@](O)(O2)C(=O)C(=O)N2CCCC[C@H]2C(=O)O[C@H]([C@H](C)C[C@@H]2CC[C@@H](OCCO)[C@H](OC)C2)CC(=O)[C@H](C)/C=C(\C)[C@@H](O)[C@@H](OC)C(=O)[C@H](C)C[C@H](C)/C=C/C=C/C=C/1C [Everolimus],IC50,mTOR,1.6 to 2.4 nM
CC1=C(O)C(=O)[C@@H]2O[C@@H]2C1=O [Terreic acid],effect on the catalytic activity of BTK,[1],Inhibits the catalytic activity of BTK
same,effect on the activity of PKC,PKC,without affecting the activity of PKC
same,"effect on the activities of Lyn, Syk, PKA, casein kinase I, ERK1, ERK2 and p38 kinase",[2],little or no effect
Trichostatin A,IC50,HDAC,~1.8 nM
